Reference: patent publication US9353171B2 (The Administrators of the Tulane Educational Fund, priority 2011, dated 2016)
Bridges are numbered along the chain shown (N, C = ends). Where no end group is shown, it is not given here.

How the values were obtained:
[1] = test system: human renal proximal tubule epithelial cells (HK-2 human kidney cells); test: Urografin-induced injury (cytotoxicity) of HK-2 cells, lactate dehydrogenase activity in the culture medium; format: cell-based; conditions: for Urografin-induced cell death of human renal proximal tubule epithelial cells: various concentrations added to the medium
Method: (§1) The HK-2 human kidney cells were cultured in Keratinocyte-Serum Free Medium supplemented with recombinant epidermal growth factor and bovine pituitary extract. […] Each value represents the mean plus/minus the standard error of four determinations. **p<0.01 and *p<0.05 compared to the cells treated only with Urografin.
The HK-2 human kidney cells were cultured in Keratinocyte-Serum Free Medium supplemented with recombinant epidermal growth factor and bovine pituitary extract. […] Each value represents the mean plus/minus the standard error of eight determinations. **p<0.01 and *p<0.05 compared to the cells treated only with Urografin. The ID numbers in the figure correspond to the SEQ ID NO numbers in the Sequence Listing. ID1=PACAP38, ID2=PACAP27, ID4=[D-Ser^2]PACAP38, ID5=[Aib^2]PACAP38, ID6=[D-Ser^2,Lys^38-palmitoyl]PACAP38, ID8=[Ala^22]PACAP38, ID10=[Lys^34]PACAP38, ID38=N-acetyl[Pip^3]PACAP38, ID39=[Pip^3,Ala^14,17,Aib^16,28,Lys^34, D-Lys^38]PACAP38, and ID40=[Pip^3,Ala^15,17,Aib^16,28,Lys^34,D-Lys^38]PACAP38.
(§2) At the highest dose tested, PACAP38 reduced the cell death caused by Urografin by more than 70%.

[2] = test system: human renal proximal tubule epithelial cells (HK-2 human kidney cells); test: Iohexol-induced inhibition of proliferation / loss of viable HK-2 cells, MTT conversion; format: cell-based; conditions: for loss of viable human renal proximal tubule epithelial cells caused by iohexol: various concentrations
Method: as §1, with “iohexol.” for “Urografin.”

[3] = rat, in vivo, iv; cited from earlier work
[4] = test system: male homozygous eNOS-deficient mice; test: Mouse model of contrast-induced nephropathy (Urografin i.v.), serum and kidney biomarkers; format: in vivo; conditions: 72 h
Method: (§3) Male homozygous eNOS-deficient mice were given a single intravenous injection of Urografin at a dose of 1.85 g iodine/kg body weight. The mice were deprived of water for 24 hours before the start of the experiment. Twenty micrograms of PACAP38 were given intraperitoneally 1 hour before the injection of Urografin and an additional dose was given 12 hours later. The control group of mice was injected intravenously with the same volume of saline as for the injections of Urografin and PACAP38 on the same schedule. The mice were euthanized 72 hours after the injection of Urografin. The concentration of cystatin C in serum was determined with an enzyme-linked immunosorbent assay. Each value represents the mean plus/minus the standard error of five or eight determinations. **p<0.01 compared to the group treated with Urografin and saline.
as §3, with “control” for “control group of”, “mice were” for “mice was”, “Urografin. Quantification” for “Urografin. The concentration”, “of mRNA levels for KIM-1” for “of cystatin C in serum”, “was made by real-time reverse transcriptase polymerase chain reaction analyses.” for “was determined with an enzyme-linked immunosorbent assay.”
as §3, with “control” for “control group of”, “mice were” for “mice was”, “Urografin. Quantification” for “Urografin. The concentration”, “of mRNA levels for netrin-1” for “of cystatin C in serum”, “was made by real-time reverse transcriptase polymerase chain reaction analyses.” for “was determined with an enzyme-linked immunosorbent assay.”
as §3, with “control” for “control group of”, “mice were” for “mice was”, “Urografin. Quantification” for “Urografin. The concentration”, “of mRNA levels for TNF-α” for “of cystatin C in serum”, “was made by real-time reverse transcriptase polymerase chain reaction analyses.” for “was determined with an enzyme-linked immunosorbent assay.”, “**p<0.01 and *p<0.05” for “**p<0.01”
Male homozygous eNOS-deficient mice were given a single intravenous injection of Urografin at a dose of 1.85 g iodine/kg body weight. The mice were deprived of water for 24 hours before the start of the experiment. Twenty micrograms of PACAP38 were given intraperitoneally 1 hour before the injection of Urografin and an additional dose was given 12 hours later. The control mice were injected intravenously with the same volume of saline as for the injections of Urografin and PACAP38 on the same schedule. The mice were euthanized 72 hours after the injection of Urografin. […]

[5] = test system: human renal proximal tubule epithelial cells (HK-2 human kidney cells); test: Secretion of KIM-1 by HK-2 cells treated with Urografin or iohexol, ELISA of culture medium; format: cell-based; conditions: 10^−6 M PACAP38, ELISA (FIG. 5)
Method: The HK-2 human kidney cells were cultured in Keratinocyte-Serum Free Medium supplemented with recombinant epidermal growth factor and bovine pituitary extract. The effects of 10^−6 M PACAP38 on the excretion of KIM-1 were assessed by determining the concentration of KIM-1 in the culture medium with an enzyme-linked immunosorbent assay. Each value represents the mean plus/minus the standard error of three determinations. **p<0.01 and *p<0.05 compared to the cells treated only with Urografin.
as §2

PAC1 receptor = target: T1, PAC1 receptor (Homo sapiens, UniProt P41586); conditions: in words; cited from earlier work
T1 sequence (P41586 21-468): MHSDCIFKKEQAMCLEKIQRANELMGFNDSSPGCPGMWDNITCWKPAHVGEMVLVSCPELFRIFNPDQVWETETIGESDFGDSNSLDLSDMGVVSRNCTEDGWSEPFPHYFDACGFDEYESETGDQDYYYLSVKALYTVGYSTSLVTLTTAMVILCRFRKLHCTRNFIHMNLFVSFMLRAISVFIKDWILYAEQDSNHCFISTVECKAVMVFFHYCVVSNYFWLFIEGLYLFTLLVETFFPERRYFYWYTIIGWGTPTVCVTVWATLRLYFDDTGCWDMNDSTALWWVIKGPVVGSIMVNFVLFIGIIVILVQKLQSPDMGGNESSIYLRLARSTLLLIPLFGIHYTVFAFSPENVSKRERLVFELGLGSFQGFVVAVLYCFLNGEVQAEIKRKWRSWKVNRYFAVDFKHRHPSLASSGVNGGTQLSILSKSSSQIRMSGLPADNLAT

VIP (HSDAVFTDNYTRLRKQMAVKKYLNSILN-NH2; listed as Homo sapiens)
Urografin-induced cell death of human renal proximal tubule epithelial cells ([1]; LDH in medium (FIG. 2)): significant dose-dependent reduction
loss of viable human renal proximal tubule epithelial cells caused by iohexol ([2]; MTT (FIG. 4)): significant dose-dependent reduction

[^125I]-PACAP38: radioiodinated PACAP38 used in a cited rat half-life study
half-life in the bloodstream [3]: 5 to 6 min

PACAP38
Urografin-induced increase in serum levels of cystatin C ([4]; 20 μg i.p. 1 h before and 12 h after Urografin 1.85 g iodine/kg i.v., ELISA (FIG. 6)): reversed the increases
Urografin-induced increase in kidney levels of TNF-α protein ([4]; 20 μg i.p. 1 h before and 12 h after Urografin, ELISA (FIG. 16)): reversed the increases
Urografin-induced increase in kidney levels of TGF-β1 protein ([4]; 20 μg i.p. 1 h before and 12 h after Urografin, ELISA (FIG. 17)): reversed the increases
Urografin-induced increase in kidney levels of MCP-1 protein ([4]; 20 μg i.p. 1 h before and 12 h after Urografin, ELISA (FIG. 18)): reversed the increases
Urografin-induced increase in kidney levels of IFN-γ protein ([4]; 20 μg i.p. 1 h before and 12 h after Urografin, ELISA (FIG. 19)): reversed the increases
Urografin-induced increase in serum levels of creatinine ([4]; 20 μg i.p. 1 h before and 12 h after Urografin, LC-MS/MS (FIG. 11)): reversed the increases
Urografin-induced increase in kidney levels of KIM-1 mRNA ([4]; 20 μg i.p. 1 h before and 12 h after Urografin, real-time RT-PCR (FIG. 7)): reversed the increases
Urografin-induced increase in kidney levels of netrin-1 mRNA ([4]; 20 μg i.p. 1 h before and 12 h after Urografin, real-time RT-PCR (FIG. 8)): reversed the increases
Urografin-induced increase in kidney levels of TNF-α mRNA ([4]; 20 μg i.p. 1 h before and 12 h after Urografin, real-time RT-PCR (FIG. 9)): reversed the increases
Urografin-induced increase in kidney levels of iNOS mRNA ([4]; 20 μg i.p. 1 h before and 12 h after Urografin, real-time RT-PCR (FIG. 10)): reversed the increases
Urografin-induced increase in kidney levels of Nogo-B1 mRNA ([4]; 20 μg i.p. 1 h before and 12 h after Urografin, real-time RT-PCR (FIG. 12)): reversed the increases
Urografin-induced increase in kidney levels of TGF-β1 mRNA ([4]; 20 μg i.p. 1 h before and 12 h after Urografin, real-time RT-PCR (FIG. 13)): reversed the increases
Urografin-induced increase in kidney levels of Nox-4 mRNA ([4]; 20 μg i.p. 1 h before and 12 h after Urografin, real-time RT-PCR (FIG. 14)): reversed the increases
Urografin-induced increase in kidney levels of Nox-2 mRNA ([4]; 20 μg i.p. 1 h before and 12 h after Urografin, real-time RT-PCR (FIG. 15)): reversed the increases
potency against Urografin-induced cell injury compared with VIP ([1]; 10^−8 M (p<0.05), 10^−7 M (p<0.01) and 10^−6 M (p<0.01) (FIG. 2)): significantly more potent than VIP
reduction of the cell death caused by Urografin ([1]; highest dose tested, HK-2 cells, LDH in medium (FIG. 2)): more than 70%
Urografin-induced cell death of human renal proximal tubule epithelial cells ([1]; LDH in medium (FIG. 2)): significant dose-dependent reduction
Urografin-induced secretion of KIM-1 into the medium [5]: significantly reduced
iohexol-induced secretion of KIM-1 into the medium [5]: significantly reduced
potency as renoprotectant against iohexol compared with VIP ([2]; 10^−7 M and 10^−6 M (FIG. 4)): significantly more potent than VIP
loss of viable human renal proximal tubule epithelial cells caused by iohexol at the highest dose ([2]; highest dose tested, MTT (FIG. 4)): almost completely prevented
loss of viable human renal proximal tubule epithelial cells caused by iohexol ([2]; MTT (FIG. 4)): significant dose-dependent reduction

B1: Maxadilan: 61-amino-acid peptide with two disulfide bridges from salivary glands of the sand fly Lutzomyia longipalpis; conformational analog of PACAP (peptide, listed as Lutzomyia longipalpis)
chain: CDATCQFRKAIEDCRKKAHHSDVLQTSVQTTATFTSMDTSQLPGSGVFKECMKQKAKEFKA
modifications: disulfide 1-5; disulfide 14-51 (inferred)
notes: 61-amino-acid peptide with two disulfide bridges from salivary glands of the sand fly Lutzomyia longipalpis; conformational analog of PACAP
binding to the PAC1 receptor (PAC1 receptor): high affinity
